From patent US20070049518A1, “Novel method of treatment of inflammatory skin conditions” (priority 2005, published 2007)

Assays:
[1] = system: V8 protease in S. aureus 8325-4 culture supernatant; assay: V8 protease activity in supernatant of S. aureus grown with compound; type: cell-based, Staphylococcus aureus
Protocol: Duplicate samples of brain heart infusion medium (5 ml; Becton Dickinson and Co.) containing 10% skimmed milk and 2% (v/v) DMSO vehicle±Compound 12 were inoculated with S. aureus 8325-4 (approximately 10^7 cells in tryptic soy broth) and incubated for 16 h at 37° C./220 rpm. Cultures were centrifuged to remove bacteria and the culture supernatants stored at −70° C. pending analysis of protease activity.
Enzyme activities were measured in mixtures containing 90 mM MOPS (sodium) buffer pH 7.0 (0.1 ml), 0.045% Brij 35, 2% (v/v) DMSO vehicle±Compound 12 and culture supernatant (4 μl). The concentration of compound used was the same as that which had been used to culture the assayed sample. Further additions to the reaction mixtures were as follows. Aureolysin assay: 4.5 mM calcium chloride, 9 μM E-64 (to inhibit cysteine protease activity) and 10 μM Mca-Pro-Leu-Gly-Leu-Dap(Dnp)-Ala-Arg-amide (Bachem); V8 protease assay: 10 μM Mca-Leu-Glu-Val-Asp-Gly-Trp-Lys(Dnp)-amide (Bachem); cysteine protease assay: 1.8 mM cysteine-HCl (pH-adjusted with NaOH), 9 mM EDTA and 0.1 mM Z-Phe-Arg-AMC hydrochloride (Bachem). The rate of product formation at 37° C. was monitored over 6 h taking readings at 15 min intervals using a POLARstar OPTIMA plate reader (BMG LABTECH Ltd) with 320 nm excitation/405 nm emission for aureolysin and V8 assays and 390 nm excitation/460 nm emission for the cysteine protease assay. Enzyme activities were determined from the linear rate of fluorescence increase and converted to percent inhibition by reference to vehicle control samples.

recombinant human ACE = biological target: T1, recombinant human ACE (Homo sapiens, UniProt P12821); assay: Selectivity profile, ACE; type: biochemical; details: read-out: inhibition at 0.1 mM, ACE
T1 construct: purchased R&D Systems Inc
Protocol: Inhibitory activity was tested in reaction mixtures (0.1 ml) containing 2% (v/v) DMSO vehicle±compound plus additions as follows. V8 protease: 90 mM MOPS (sodium) buffer pH 7.0, […] calcium chloride, 0.045% Brij 35, 10 μM Mca-Leu-Glu-Val-Asp-Gly-Trp-Lys(Dnp)-amide (Bachem) and V8 (BioCentrum Ltd; 30 ng). Staphopain A and B: 90 mM MOPS (sodium) buffer pH 7.0, 1.8 mM cysteine-HCl (pH-adjusted with NaOH), 0.045% Brij 35, 0.1 mM Z-Phe-Arg-AMC hydrochloride (Bachem) and staphopain A or B (BioCentrum Ltd; 30 ng). Human kallikrein 5: 0.1M sodium phosphate buffer pH 8.0, 0.045% Brij 35, 0.1 mM Boc-Val-Pro-Arg-AMC (Sigma) and recombinant human kallikrein 5 (R&D Systems Inc; 6 ng). Human kallikrein 7: 72 mM Tris-HCl pH 8.0, 0.033% Brij 35, 1.2 mM S-2586 (Chromogenix Instrumentation Laboratory SpA) and recombinant human kallikrein 7 (R&D Systems Inc; 0.6 μg) that had been thermolysin-activated according to the manufacturer's instructions. Human angiotensin-converting enzyme (ACE): 45 mM MES (sodium) buffer pH 6.5, 0.045% Brij 35, 10 μM Mca-[…]Dnp)-OH(R&D Systems Inc) and recombinant human ACE (R&D Systems Inc; 1.3 ng). Human cathepsin D: 0.1M sodium acetate buffer pH 3.5, 0.2M sodium chloride, 0.045% Brij 35, 10 μM Mca-Pro-Leu-Gly-Leu-Dap(Dnp)-Ala-Arg-amide (Bachem) and recombinant human cathepsin D (R&D Systems Inc; 8 ng) activated according to the manufacturer's instructions. […]

[2] = system: protease activity in skin wash samples from patients with acute AD; assay: Protease activity in skin wash samples, fluorogenic enzyme assay; type: biochemical, human
Protocol: A method has been developed to evaluate protease activity in skin washings. Skin washings from patients with acute eczema may be obtained by aspirating 0.5 ml sterile physiological saline over the skin surface using a sterile, disposable plastic Pasteur pipette The skin area ( 1 cm^2) is defined by a sterile open-ended plastic cylinder. […] Samples were incubated at 37° C. in a POLARstar Optima plate reader (BMG Labtech Ltd.) and fluorescence readings (320 nm excitation/405 nm emission) taken every 15 min for 6 h. Activity was expressed as the rate of increase in fluorescence as a function of time.

T1 sequence (P12821 30-1306): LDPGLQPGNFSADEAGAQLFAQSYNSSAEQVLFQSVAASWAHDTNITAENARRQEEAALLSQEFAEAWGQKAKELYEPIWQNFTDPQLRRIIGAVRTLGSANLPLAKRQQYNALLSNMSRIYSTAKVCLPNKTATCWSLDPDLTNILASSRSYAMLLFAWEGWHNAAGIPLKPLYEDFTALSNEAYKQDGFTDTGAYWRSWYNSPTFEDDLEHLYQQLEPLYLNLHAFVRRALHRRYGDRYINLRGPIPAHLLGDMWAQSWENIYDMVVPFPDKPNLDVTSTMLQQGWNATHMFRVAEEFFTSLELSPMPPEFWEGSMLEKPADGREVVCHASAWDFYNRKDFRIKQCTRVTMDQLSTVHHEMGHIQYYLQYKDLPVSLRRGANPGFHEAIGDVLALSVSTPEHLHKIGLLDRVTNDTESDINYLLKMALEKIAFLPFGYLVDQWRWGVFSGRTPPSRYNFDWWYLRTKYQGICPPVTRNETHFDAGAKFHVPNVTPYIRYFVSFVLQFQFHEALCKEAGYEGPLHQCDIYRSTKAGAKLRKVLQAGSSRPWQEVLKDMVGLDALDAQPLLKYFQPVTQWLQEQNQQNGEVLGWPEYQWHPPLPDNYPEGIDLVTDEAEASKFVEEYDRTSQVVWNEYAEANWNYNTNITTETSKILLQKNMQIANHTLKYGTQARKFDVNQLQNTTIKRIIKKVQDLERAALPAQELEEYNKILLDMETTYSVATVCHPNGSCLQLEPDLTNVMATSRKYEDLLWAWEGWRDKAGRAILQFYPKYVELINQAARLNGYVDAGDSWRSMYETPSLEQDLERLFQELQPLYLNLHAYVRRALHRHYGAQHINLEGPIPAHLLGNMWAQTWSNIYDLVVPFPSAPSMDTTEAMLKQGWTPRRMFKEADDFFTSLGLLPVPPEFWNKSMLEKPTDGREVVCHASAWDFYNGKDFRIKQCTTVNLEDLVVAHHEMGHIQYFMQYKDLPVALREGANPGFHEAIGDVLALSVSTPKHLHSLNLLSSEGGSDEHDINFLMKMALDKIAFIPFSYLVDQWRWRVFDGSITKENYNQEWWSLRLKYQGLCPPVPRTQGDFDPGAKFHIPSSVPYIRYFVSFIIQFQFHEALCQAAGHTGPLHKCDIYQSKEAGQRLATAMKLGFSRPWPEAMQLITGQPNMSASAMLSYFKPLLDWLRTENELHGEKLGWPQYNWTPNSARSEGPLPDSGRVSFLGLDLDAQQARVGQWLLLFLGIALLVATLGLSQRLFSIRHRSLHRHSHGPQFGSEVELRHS

## CNC(=O)[C@@H](NC(=O)[C@H](CC(=O)NO)CC(C)C)C(C)(C)C [Compound 12, (S)—N1-((S)-3,3-dimethyl-1-(methylamino)-1-oxobutan-2-yl)-N4-hydroxy-2-isobutylsuccinamide]
[1]; Compound 12 40 μM in culture and assay
  Inhibition (%) V8 protease: 83%
[1]; Compound 12 79 μM in culture and assay
  Inhibition (%) V8 protease: 91%
[1]; Compound 12 159 μM in culture and assay
  Inhibition (%) V8 protease: 97%
[1]; Compound 12 317 μM in culture and assay
  Inhibition (%) V8 protease: 99%
Recombinant human ACE
  inhibition at 100 µM: 0%

## CNC(=O)[C@@H](NC(=O)[C@@H](CC(=O)NO)CC(C)C)C(C)(C)C [Compound 11, (R)—N1-((S)-3,3-dimethyl-1-(methylamino)-1-oxobutan-2-yl)-N4-hydroxy-2-isobutylsuccinamide]
[2]; 50 μM, fluorogenic assay, AD patients
  inhibition of protease activity in skin wash samples (in words): significant inhibition of protease activity
[2]; 50 μM, skin wash sample 5
  % Inhibition protease activity with compound 11: 100%
[2]; 50 μM, skin wash sample 7
  % Inhibition protease activity with compound 11: 48.7%
[2]; 50 μM, skin wash sample 14
  % Inhibition protease activity with compound 11: 88.5%
[2]; 50 μM, skin wash sample 17
  % Inhibition protease activity with compound 11: 96.4%
[2]; 50 μM, skin wash sample 18
  % Inhibition protease activity with compound 11: 75.6%
[2]; 50 μM, skin wash sample 21
  % Inhibition protease activity with compound 11: 85.1%
[2]; 50 μM, skin wash sample 26
  % Inhibition protease activity with compound 11: 85.3%
[2]; 50 μM, skin wash sample 30
  % Inhibition protease activity with compound 11: 100%
[2]; 50 μM, skin wash sample 36
  % Inhibition protease activity with compound 11: 95.3%
[2]; 50 μM, skin wash sample 37
  % Inhibition protease activity with compound 11: 81.8%
[2]; 50 μM, skin wash sample 39
  % Inhibition protease activity with compound 11: 100%
[2]; 50 μM, skin wash sample 40
  % Inhibition protease activity with compound 11: 85.6%
[2]; 50 μM, skin wash sample 43
  % Inhibition protease activity with compound 11: 91.8%
[2]; 50 μM, skin wash sample 48
  % Inhibition protease activity with compound 11: 96.9%
[2]; skin wash sample 5
  Protease activity with 50 μM compound 11: 0 FIU/min/μl
[2]; skin wash sample 7
  Protease activity with 50 μM compound 11: 0.271 FIU/min/μl
[2]; skin wash sample 14
  Protease activity with 50 μM compound 11: 0.0761 FIU/min/μl
[2]; skin wash sample 17
  Protease activity with 50 μM compound 11: 0.123 FIU/min/μl
[2]; skin wash sample 18
  Protease activity with 50 μM compound 11: 0.0674 FIU/min/μl
[2]; skin wash sample 21
  Protease activity with 50 μM compound 11: 0.0302 FIU/min/μl
[2]; skin wash sample 24 (activity without compound 0)
  Protease activity with 50 μM compound 11: 0.00122 FIU/min/μl
[2]; skin wash sample 26
  Protease activity with 50 μM compound 11: 0.0554 FIU/min/μl
[2]; skin wash sample 30
  Protease activity with 50 μM compound 11: 0 FIU/min/μl
[2]; skin wash sample 36
  Protease activity with 50 μM compound 11: 0.0173 FIU/min/μl
[2]; skin wash sample 37
  Protease activity with 50 μM compound 11: 0.126 FIU/min/μl
[2]; skin wash sample 39
  Protease activity with 50 μM compound 11: 0 FIU/min/μl
[2]; skin wash sample 40
  Protease activity with 50 μM compound 11: 0.103 FIU/min/μl
[2]; skin wash sample 43
  Protease activity with 50 μM compound 11: 0.0814 FIU/min/μl
[2]; skin wash sample 48
  Protease activity with 50 μM compound 11: 0.0287 FIU/min/μl
